Measured values: the NIST ThermoML archive (doi:10.1016/j.fluid.2012.10.024)

Test: xn = mol fraction of the nth substance listed
Conditions: 101 kPa, Liquid, Vibrating tube method

OCc1ccccn1 [α-picolyl alcohol] + O
mass density [kg/m3]
Conditions	293.15 K	298.15 K	303.15 K	308.15 K	313.15 K	318.15 K
x1 = 0.05	1033.4	1031.7	1029.2	1027.6	1024.4	1021.6
x1 = 0.15	1077.3	1074.4	1071	1067.6	1064.5	1061.1
x1 = 0.2	1088.5	1085	1080.9	1076.8	1073.1	1069.3
x1 = 0.25	1098.1	1094	1089.6	1085.5	1081.6	1077.8
x1 = 0.3	1106.3	1102.9	1098.9	1095.1	1091.5	1087.9
x1 = 0.35	1112	1107.9	1103.4	1099.3	1095.4	1091.4
x1 = 0.4	1116	1111.7	1106.7	1102.3	1098.2	1094.5
x1 = 0.45	1119.8	1116.2	1111.9	1107.4	1103.6	1099.8
x1 = 0.5	1122.4	1118.9	1114.7	1110.8	1107	1103.2
x1 = 0.55	1124.4	1120.7	1116.3	1112.2	1108.3	1104.5
x1 = 0.6	1125.7	1122.1	1117.9	1113.9	1110	1106.3
x1 = 0.65	1127.5	1123.9	1119.8	1115.9	1112.1	1108.4
x1 = 0.7	1128.4	1124.8	1120.7	1116.9	1113.1	1109.5
x1 = 0.75	1129.3	1125.8	1121.7	1117.7	1114.1	1110.4
x1 = 0.8	1130.2	1126.7	1122.6	1118.7	1115	1111.2
x1 = 0.9	1131.5	1127.9	1123.9	1119.8	1116.1	1112.4
x1 = 0.95	1131.9	1128.3	1124.3	1120.3	1116.6	1112.9
x1 = 1	1132.3	1128.8	1124.7	1120.7	1116.9	1113.3

OCc1cccnc1 [β-picolyl alcohol] + O
mass density [kg/m3]
Conditions	293.15 K	298.15 K	303.15 K	308.15 K	313.15 K	318.15 K
x1 = 0.05	1032.8	1031.1	1028.7	1026.3	1024.1	1021.8
x1 = 0.1	1056.5	1054	1051.1	1048.2	1045.5	1042.8
x1 = 0.15	1074.5	1071.9	1068.7	1065.5	1062.5	1059.5
x1 = 0.2	1089.7	1086.6	1083.2	1079.8	1076.6	1073.3
x1 = 0.25	1098	1095	1091.4	1088	1084.7	1081.4
x1 = 0.3	1106.6	1103.4	1099.7	1096.2	1092.8	1089.5
x1 = 0.35	1111.4	1108.1	1104.4	1100.8	1097.4	1094
x1 = 0.4	1117	1113.7	1109.9	1106.3	1103	1099.4
x1 = 0.45	1120.5	1117.2	1113.5	1109.7	1106.4	1102.9
x1 = 0.5	1123.5	1120.3	1116.5	1112.8	1109.4	1106
x1 = 0.55	1125.9	1122.4	1118.6	1114.9	1111.6	1108.2
x1 = 0.6	1128	1124.7	1120.8	1117.3	1113.8	1110.4
x1 = 0.65	1129.7	1126.4	1122.5	1118.9	1115.5	1112.1
x1 = 0.7	1131.1	1127.8	1123.9	1120.3	1116.9	1113.5
x1 = 0.75	1132.3	1129	1125.2	1121.6	1118.1	1114.7
x1 = 0.8	1133.5	1130.1	1126.3	1122.7	1119.3	1115.9
x1 = 0.85	1134.5	1131.2	1127.4	1123.7	1120.3	1116.9
x1 = 0.9	1135.2	1131.8	1128.1	1124.5	1121.1	1117.7
x1 = 0.95	1136.1	1132.7	1128.9	1125.3	1122	1118.6
x1 = 1	1136.8	1133.5	1129.6	1125.9	1122.6	1119.3
